Where two headings read alike, the source gives them in different places.

In US9145354B2, “Pharmaceutical compounds” (priority 2011, dated 2015) one finds IC50 and inhibition data, which are given here for 32 compounds.

In the experiment the target is full length NS3/4a (Hepatitis C virus genotype 1b (isolate BK) (HCV), UniProt P26663). Kind of experiment: NS3 Protease Assay (Example A), FRET-based. It counts as biochemical. An outline of the steps: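 Full-length NS3/4a, made in-house, with an NS4A/B-derived peptide substrate carrying QXL520 quencher and 5-FAMsp fluorophore. Buffer 50 mM Tris pH8, 20 mM DTT, 1% CHAPS, 10% glycerol, 5% DMSO. Fluorescence followed 30 min at room temperature; IC50 from initial rates of replicate curves.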
Chain of full length NS3/4a (P26663 1027-1657): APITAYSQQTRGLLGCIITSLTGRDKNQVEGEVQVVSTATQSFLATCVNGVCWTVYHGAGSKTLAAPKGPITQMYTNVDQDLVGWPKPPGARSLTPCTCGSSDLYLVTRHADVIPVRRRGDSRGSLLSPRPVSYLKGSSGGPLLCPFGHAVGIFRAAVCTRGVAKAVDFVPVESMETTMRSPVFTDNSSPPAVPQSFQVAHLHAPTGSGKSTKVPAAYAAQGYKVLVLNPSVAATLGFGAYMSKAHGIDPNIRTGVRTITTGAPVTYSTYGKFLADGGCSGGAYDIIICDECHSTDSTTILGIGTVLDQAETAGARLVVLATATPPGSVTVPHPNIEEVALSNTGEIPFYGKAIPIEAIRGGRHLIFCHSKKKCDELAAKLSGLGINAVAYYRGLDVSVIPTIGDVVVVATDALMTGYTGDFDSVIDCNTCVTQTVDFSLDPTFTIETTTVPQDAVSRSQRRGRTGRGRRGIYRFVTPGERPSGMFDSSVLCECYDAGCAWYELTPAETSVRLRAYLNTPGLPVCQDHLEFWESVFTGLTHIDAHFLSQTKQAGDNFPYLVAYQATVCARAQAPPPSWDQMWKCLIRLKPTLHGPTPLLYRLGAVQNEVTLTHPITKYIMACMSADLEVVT

Setting [1] is: HCV NS3 protease assay, full length NS3/4a, read-out: Assay A IC50 (μM) average.
The mark [2] stands for this setting: read-out: IC50 against the protease activity of the full length NS3/4a.
Setting [3] is: stated as IC50 less than 30 μM or at least 40% inhibition at a concentration of 100 μM, read-out: IC50 against the protease activity of the full length NS3/4a.

In the case of `C[C@H](CC(N)=O)N[C@@H](c1ccc(Cl)c(C(=O)c2ccc(N)cn2)c1F)C1CC1` [Example 254, (3R)-3-{[(R)-{3-[(5-aminopyridin-2-yl)carbonyl]-4-chloro-2-fluorophenyl}(cyclopropyl)methyl]amino}butanamide], the IC50 is, setting by setting: under setting [1], 1.8 µM; under setting [2], 1 to 5 µM.

As for `C=CC[C@@H](N[C@H](C)CC(N)=O)c1ccc(Cl)c(C(=O)c2ccc(N)nc2)c1F` [Example 257, (3R)-3-{[(1R)-1-{3-[(6-aminopyridin-3-yl)carbonyl]-4-chloro-2-fluorophenyl}but-3-en-1-yl]amino}butanamide], the IC50 reads like this: under setting [1], 2 µM; under setting [2], 1 to 5 µM. For the setting “@ 0.3 uM”, `CC[C@@H](N[C@H](C)CC(N)=O)c1ccc(Cl)c(C(=O)c2ccc(N)c(C)c2)c1F` [Example 260, (3R)-3-{[(1R)-1-{3-[(4-amino-3-methylphenyl)carbonyl]-4-chloro-2-fluorophenyl}propyl]amino}butanamide] gave an inhibition at 0.3 µM of 39%. Take `C[C@H](CC(N)=O)N[C@@H](c1ccc(Cl)c(C(=O)c2ccc(CO)cc2)c1F)C1CC1` [Example 264, (3R)-3-{[(R)-(4-chloro-2-fluoro-3-{[4-(hydroxymethyl)phenyl]carbonyl}phenyl)(cyclopropyl)methyl]amino}butanamide]: the IC50 under setting [1] is 0.61 µM. Turning to `CC[C@@H](N[C@H](C)CC(N)=O)c1ccc(Cl)c(C(=O)c2ccc(N)nc2)c1F` [Example 266, (3R)-3-{[(1R)-1-{3-[(6-aminopyridin-3-yl)carbonyl]-4-chloro-2-fluorophenyl}(2,2,3,3,3-deutero)propyl]amino}butanamide], the IC50 under setting [1] worked out at 1.1 µM and the IC50 under setting [2] was 1 to 5 µM. Turning to `C[C@H](CC(N)=O)N[C@@H](c1ccc(Cl)c(C(=O)c2ccc3c(c2)OCC(=O)N3)c1F)C1CC1` [Example 271, (3R)-3-{[(R)-{4-chloro-2-fluoro-3-[(3-oxo-3,4-dihydro-2H-1,4-benzoxazin-7-yl)carbonyl]phenyl}(cyclopropyl)methyl]-amino}butanamide], the IC50 reads like this: under setting [1], 1.1 µM; under setting [2], 1 to 5 µM. With `CC(C)C[C@@H](N[C@H](C)CC(N)=O)c1ccc(Cl)c(C(=O)c2ccc(N)nc2)c1F` [Example 272, (3R)-3-{[(1R)-1-{3-[(6-aminopyridin-3-yl)carbonyl]-4-chloro-2-fluorophenyl}-3-methylbutyl]amino} butanamide], the inhibition at 3 µM came out at 43%. Further, under setting [3], the IC50 was less than 30 µM.

`CC[C@@H](N[C@H](C)CC(N)=O)c1ccc(OC)c(C(=O)c2ccc(N)c(C)c2)c1F` [Example 274, (3R)-3-{[(1R)-1-{3-[(4-amino-3-methylphenyl)carbonyl]-2-fluoro-4-methoxyphenyl}propyl]amino}butanamide]: the IC50 under setting [1] came out at 0.56 µM. Consider `CC[C@@H](N[C@H](C)CC(N)=O)c1ccc(OC)c(C(=O)c2cccc(C#N)c2)c1F` [Example 277, (3R)-3-{[(1R)-1-{3-[(3-cyanophenyl)carbonyl]-2-fluoro-4-methoxyphenyl}propyl]amino}butanamide], for which the IC50 under setting [1] turned out to be 0.73 µM. As for `C[C@H](CC(N)=O)N[C@H](CC1CC1)c1ccc(Cl)c(C(=O)c2ccc(N)nc2)c1F` [Example 279, (3R)-3-{[(1R)-1-{3-[(6-aminopyridin-3-yl)carbonyl]-4-chloro-2-fluorophenyl}-2-cyclopropylethyl]amino}butanamide], the IC50 under setting [1] was 0.39 µM. Regarding `C[C@@H](CC(N)=O)NCc1ccc(Cl)c(C(=O)c2ccccc2)c1F` [Example 281, (3S)-3-{[(3-benzoyl-4-chloro-2-fluorophenyl)methyl]amino}butanamide], the IC50 under setting [1] came out at 0.45 µM. In the case of `CC[C@@H](NC1CCOCC1)c1ccc(Cl)c(C(=O)c2cccnc2)c1F` [Example 283, N-[(1R)-1-{4-chloro-2-fluoro-3-[(pyridin-3-yl)carbonyl]phenyl}propyl]oxan-4-amine], under setting [3], the IC50 is less than 30 µM. As for `CC[C@@H](NCC1CC1)c1ccc(Cl)c(C(=O)c2cccnc2)c1F` [Example 284], the IC50 under setting [1] worked out at 2.7 µM and the IC50 under setting [2] fell in the range of 1 to 5 µM. Taken in the same sequence, the figures for `CC[C@@H](NC(C)C)c1ccc(Cl)c(C(=O)c2cccnc2)c1F` [Example 285, [(1R)-1-{4-chloro-2-fluoro-3-[(pyridin-3-yl)carbonyl]phenyl}propyl] (propan-2-yl)amine] were 2 µM and 1 to 5 µM. As for `CC[C@H](NC(=O)C1=CCNC1)c1ccc(Cl)c(C(=O)c2cccnc2)c1F` [Example 286, N-[(1S)-1-{4-chloro-2-fluoro-3-[(pyridin-3-yl)carbonyl]phenyl}propyl]-2,5-dihydro-1H-pyrrole-3-carboxamide], the IC50 under setting [1] worked out at 0.13 µM and the IC50 under setting [2] was less than 1 µM. Take `CC[C@H](NC(=O)C1=CCCNC1)c1ccc(Cl)c(C(=O)c2cccnc2)c1F` [Example 287, N-[(1S)-1-{4-chloro-2-fluoro-3-[(pyridin-3-yl)carbonyl]phenyl}propyl]-1,2,5,6-tetrahydropyridine-3-carboxamide]: the IC50 by setting is: under setting [1], 0.14 µM; under setting [2], less than 1 µM. As to `CC[C@@H](NCc1cnc[nH]1)c1ccc(Cl)c(C(=O)c2cccnc2)c1F` [Example 288, [(1R)-1-{4-chloro-2-fluoro-3-[(pyridin-3-yl)carbonyl]phenyl}propyl](1H-imidazol-5-ylmethyl)amine], the IC50 is 1.4 µM under setting [1] and 1 to 5 µM under setting [2]. The matching figures for `CC[C@@H](NC)c1ccc(Cl)c(C(=O)c2cccnc2)c1F` [Example 289, [(1R)-1-{4-chloro-2-fluoro-3-[(pyridin-3-yl)carbonyl]phenyl}propyl](methyl)amine]: 2.4 µM and 1 to 5 µM.

Turning to `CC[C@@H](NCCF)c1ccc(Cl)c(C(=O)c2cccnc2)c1F` [Example 290, [(1R)-1-{4-chloro-2-fluoro-3-[(pyridin-3-yl)carbonyl]phenyl}propyl] (2-fluoroethyl)amine], the IC50 reads like this: under setting [1], 14 µM; under setting [3], less than 30 µM. In the case of `CC[C@@H](NC(=O)C1=CCNC1)c1ccc(Cl)c(C(=O)c2cccnc2)c1F` [Example 291, N-[(1R)-1-{4-chloro-2-fluoro-3-[(pyridin-3-yl)carbonyl]phenyl}propyl]-2,5-dihydro-1H-pyrrole-3-carboxamide], the inhibition at 3 µM turned out to be 51%. Moreover, the IC50 under setting [2] fell in the range of 1 to 5 µM. The compound `CC[C@@H](N[C@@H]1CCOC1)c1ccc(Cl)c(C(=O)c2cccnc2)c1F` [Example 292, (3R)-N-[(1R)-1-{4-chloro-2-fluoro-3-[(pyridin-3-yl)carbonyl]phenyl}propyl] oxolan-3-amine] displayed an inhibition at 10 µM of 4%. The same measure, in the same setting: with `CC[C@@H](N[C@H]1CCOC1)c1ccc(Cl)c(C(=O)c2cccnc2)c1F` [Example 293, (3S)-N-[(1R)-1-{4-chloro-2-fluoro-3-[(pyridin-3-yl)carbonyl]phenyl}propyl] oxolan-3-amine] the figure was 11%. `CC[C@H](NC(=O)C1CCCNC1)c1ccc(Cl)c(C(=O)c2cccnc2)c1F` (stereo partly drawn) [Example 294, N-[(1S)-1-{4-chloro-2-fluoro-3-[(pyridin-3-yl)carbonyl]phenyl}propyl]piperidine-3-carboxamide]: the IC50 runs as follows: under setting [1], 0.41 µM; under setting [2], less than 1 µM. `CC[C@H](NC(=O)C1CCNC1)c1ccc(Cl)c(C(=O)c2cccnc2)c1F` (stereo partly drawn) [Example 295, N-[(1S)-1-{4-chloro-2-fluoro-3-[(pyridin-3-yl)carbonyl]phenyl}propyl] pyrrolidine-3-carboxamide]: the inhibition at 3 µM was determined as 38%. In the case of `CC[C@@H](NC1CC1)c1ccc(Cl)c(C(=O)c2cccnc2)c1F` [Example 296, N-[(1R)-1-{4-chloro-2-fluoro-3-[(pyridin-3-yl)carbonyl]phenyl}-propyl]cyclopropanamine], the IC50 is 13 µM under setting [1] and less than 30 µM under setting [3]. On to `CC[C@H](NC(=O)CCN)c1ccc(Cl)c(C(=O)c2cccnc2)c1F` [Example 297, 3-amino-N-[(1S)-1-{4-chloro-2-fluoro-3-[(pyridin-3-yl)carbonyl]phenyl}propyl] propanamide], for which the IC50 is, setting by setting: under setting [1], 0.15 µM; under setting [2], less than 1 µM. Turning to `CC[C@H](NC(=O)C[C@@H](N)C(C)C)c1ccc(Cl)c(C(=O)c2cccnc2)c1F` [Example 298, (3R)-3-amino-N-[(1S)-1-{4-chloro-2-fluoro-3-[(pyridin-3-yl)carbonyl]phenyl}propyl]-4-methylpentanamide], the IC50 under setting [1] worked out at 0.064 µM and the IC50 under setting [2] is less than 1 µM. Regarding `CC[C@@H](NCc1cn[nH]c1)c1ccc(Cl)c(C(=O)c2cccnc2)c1F` [Example 299, [(1R)-1-{4-chloro-2-fluoro-3-[(pyridin-3-yl)carbonyl]phenyl}propyl] (1H-pyrazol-4-ylmethyl)amine], the inhibition at 10 µM was 32%. As for `CC[C@@H](N[C@H](C)c1cn[nH]c1)c1ccc(Cl)c(C(=O)c2cccnc2)c1F` [Example 300, [(1R)-1-{4-chloro-2-fluoro-3-[(pyridin-3-yl)carbonyl]phenyl}propyl] [(1R)-1-(1H-pyrazol-4-yl)ethyl]amine], at 30 µM the inhibition (@ 30 uM) was 48%. In addition, the IC50 under setting [3] is less than 30 µM. `CC[C@@H](N[C@@H](C)c1cn[nH]c1)c1ccc(Cl)c(C(=O)c2cccnc2)c1F` [Example 301, [(1R)-1-{4-chloro-2-fluoro-3-[(pyridin-3-yl)carbonyl]phenyl}propyl] [(1S)-1-(1H-pyrazol-4-yl)ethyl]amine] displayed an inhibition at 10 µM of 65%. The IC50 under setting [3] was less than 30 µM.

As for `CC[C@H](NC(=N)N)c1ccc(Cl)c(C(=O)c2cccnc2)c1F` [Example 302], the IC50 was 1.3 µM under setting [1] and 1 to 5 µM under setting [2]. With `CC[C@H](NC(=O)CCN)c1ccc(Cl)c(C(=O)c2ccc(N)nc2)c1F` [Example 303], the IC50 is 0.065 µM under setting [1] and less than 1 µM under setting [2].

What is called inhibition is the relative decrease from the control value, in per cent. A low value points to a response near the control.
